Broadly, the MIC is the smallest concentration in the dilution series that meets the test's criterion for growth inhibition. Low values mean greater potency, high ones weaker potency.

The text below walks through data of US9822114B2, “Tricyclic oxazolidinone antibiotic compounds” (Idorsia Pharmaceuticals Ltd, priority 2008, dated 2017).

The test system of this test is M. catarrhalis A894. Nature of the test: Minimal inhibitory concentration (MIC), microdilution method in cation-adjusted Mueller-Hinton Broth (CLSI M7-A7). Type of test: cell-based. As to conditions: Moraxella catarrhalis, strain A894. Here is the method: Minimal inhibitory concentrations (MICs; mg/1) were determined in cation-adjusted Mueller-Hinton Broth by a microdilution method following the description given in “Methods for Dilution Antimicrobial Susceptibility Tests for Bacteria that Grow Aerobically”, Approved standard, 7th ed., Clinical and Laboratory Standards Institute (CLSI) Document M7-A7, Wayne, Pa., USA, 2006.
As for `O=C1CSc2ccc(N3C[C@H](CCN(CCCO)CC4Cn5c(=O)ccc6ccc(F)c4c65)OC3=O)cc2N1` (mixture of isomers) [Example 90, (RS)-9-fluoro-1-[((3-hydroxy-propyl)-{2-[(S)-2-oxo-3-(3-oxo-3,4-dihydro-2H-benzo[1,4]thiazin-6-yl)-oxazolidin-5-yl]-ethyl}-amino)-methyl]-1,2-dihydro-pyrrolo[3,2,1-ij]quinolin-4-one], the MIC is at most 0.031 µg/mL.

`O=C1CSc2ccc(N3C[C@H](CCN(CCO)CC4Cn5c(=O)ccc6ccc(F)c4c65)OC3=O)cc2N1` (mixture of isomers) [Example 91, (RS)-9-fluoro-1-[((2-hydroxy-ethyl)-{2-[(S)-2-oxo-3-(3-oxo-3,4-dihydro-2H-benzo[1,4]thiazin-6-yl)-oxazolidin-5-yl]-ethyl}-amino)-methyl]-1,2-dihydro-pyrrolo[3,2,1-ij]quinolin-4-one] had an MIC of at most 0.031 µg/mL.

`O=C1CSc2ccc(N3C[C@@H](CCCN(CCCO)C4Cn5c(=O)ccc6ccc(F)c4c65)OC3=O)cc2N1` (mixture of isomers) [Example 92, (RS)-9-fluoro-1-((3-hydroxy-propyl)-{3-[(R)-2-oxo-3-(3-oxo-3,4-dihydro-2H-benzo[1,4]thiazin-6-yl)-oxazolidin-5-yl]-propyl}-amino)-1,2-dihydro-pyrrolo[3,2,1-ij]quinolin-4-one]: the MIC is at most 0.031 µg/mL.

`O=C1CSc2ccc(N3C[C@@H](CCCN(CCO)C4Cn5c(=O)ccc6ccc(F)c4c65)OC3=O)cc2N1` (mixture of isomers) [Example 93, (RS)-9-fluoro-1-((2-hydroxy-ethyl)-{3-[(R)-2-oxo-3-(3-oxo-3,4-dihydro-2H-benzo[1,4]thiazin-6-yl)-oxazolidin-5-yl]-propyl}-amino)-1,2-dihydro-pyrrolo[3,2,1-ij]quinolin-4-one] gave an MIC of at most 0.031 µg/mL.

Compound `O=C1CSc2ccc(N3C[C@@H](CCCNC4Cn5c(=O)ccc6ncc(F)c4c65)OC3=O)cc2N1` (mixture of isomers) [Example 94, (RS)-3-fluoro-4-{3-[(R)-2-oxo-3-(3-oxo-3,4-dihydro-2H-benzo[1,4]thiazin-6-yl)-oxazolidin-5-yl]-propylamino}-4,5-dihydro-pyrrolo[3,2,1-de][1,5]naphthyridin-7-one] displayed an MIC of at most 0.031 µg/mL.

Turning to `O=C1COc2ccc(N3C[C@@H](CCCNC4Cn5c(=O)ccc6ncc(F)c4c65)OC3=O)cc2N1` (mixture of isomers) [Example 95, (RS)-3-fluoro-4-{3-[(R)-2-oxo-3-(3-oxo-3,4-dihydro-2H-benzo[1,4]oxazin-6-yl)-oxazolidin-5-yl]-propylamino}-4,5-dihydro-pyrrolo[3,2,1-de][1,5]naphthyridin-7-one], the MIC was at most 0.031 µg/mL.

As to `O=C1CSc2ccc(N3C[C@H](CCCNC4Cn5c(=O)ccc6ncc(F)c4c65)OC3=O)cc2N1` (mixture of isomers) [Example 96, (RS)-3-fluoro-4-{3-[(S)-2-oxo-3-(3-oxo-3,4-dihydro-2H-benzo[1,4]thiazin-6-yl)-oxazolidin-5-yl]-propylamino}-4,5-dihydro-pyrrolo[3,2,1-de][1,5]naphthyridin-7-one], the MIC is at most 0.031 µg/mL.

`O=C1COc2ccc(N3C[C@H](CCCNC4Cn5c(=O)ccc6ncc(F)c4c65)OC3=O)cc2N1` (mixture of isomers) [Example 97, (RS)-3-fluoro-4-{3-[(S)-2-oxo-3-(3-oxo-3,4-dihydro-2H-benzo[1,4]oxazin-6-yl)-oxazolidin-5-yl]-propylamino}-4,5-dihydro-pyrrolo[3,2,1-de][1,5]naphthyridin-7-one] had an MIC of at most 0.031 µg/mL.

The compound `O=C1COc2ccc(N3C[C@@H](CNCC4Cn5c(=O)ccc6ncc(F)c4c65)OC3=O)cc2N1` (mixture of isomers) [Example 98, (RS)-3-fluoro-4-({[(R)-2-oxo-3-(3-oxo-3,4-dihydro-2H-benzo[1,4]oxazin-6-yl)-oxazolidin-5-ylmethyl]-amino}-methyl)-4,5-dihydro-pyrrolo[3,2,1-de][1,5]naphthyridin-7-one] registered an MIC of 0.25 µg/mL.

With `O=C1CSc2ccc(N3C[C@H](CCNCC4Cn5c(=O)ccc6ncc(F)c4c65)OC3=O)cc2N1` (mixture of isomers) [Example 99, (RS)-3-fluoro-4-({2-[(S)-2-oxo-3-(3-oxo-3,4-dihydro-2H-benzo[1,4]thiazin-6-yl)-oxazolidin-5-yl]-ethylamino}-methyl)-4,5-dihydro-pyrrolo[3,2,1-de][1,5]naphthyridin-7-one], the MIC is at most 0.031 µg/mL.

As to `O=C1CSc2ccc(N3C[C@@H](CNCC4Cn5c(=O)ccc6ncc(F)c4c65)OC3=O)cc2N1` (mixture of isomers) [Example 100, (RS)-3-fluoro-4-({[(R)-2-oxo-3-(3-oxo-3,4-dihydro-2H-benzo[1,4]thiazin-6-yl)-oxazolidin-5-ylmethyl]-amino}-methyl)-4,5-dihydro-pyrrolo[3,2,1-de][1,5]naphthyridin-7-one], the MIC was determined as 0.031 µg/mL.

Compound `O=C1CSc2ccc(N3C[C@H](CNCC4Cn5c(=O)ccc6ncc(F)c4c65)OC3=O)cc2N1` (mixture of isomers) [Example 101, (RS)-3-fluoro-4-({[(S)-2-oxo-3-(3-oxo-3,4-dihydro-2H-benzo[1,4]thiazin-6-yl)-oxazolidin-5-ylmethyl]-amino}-methyl)-4,5-dihydro-pyrrolo[3,2,1-de][1,5]naphthyridin-7-one] came in with an MIC of at most 0.031 µg/mL.

As to `O=C1COc2ccc(N3C[C@H](CCNCC4Cn5c(=O)ccc6ncc(F)c4c65)OC3=O)cc2N1` (mixture of isomers) [Example 102, (RS)-3-fluoro-4-({2-[(S)-2-oxo-3-(3-oxo-3,4-dihydro-2H-benzo[1,4]oxazin-6-yl)-oxazolidin-5-yl]-ethylamino}-methyl)-4,5-dihydro-pyrrolo[3,2,1-de][1,5]naphthyridin-7-one], the MIC is at most 0.031 µg/mL.

Compound `O=C1COc2ccc(N3C[C@@H](CCNCC4Cn5c(=O)ccc6ncc(F)c4c65)OC3=O)cc2N1` (mixture of isomers) [Example 103, (RS)-3-fluoro-4-({2-[(R)-2-oxo-3-(3-oxo-3,4-dihydro-2H-benzo[1,4]oxazin-6-yl)-oxazolidin-5-yl]-ethylamino}-methyl)-4,5-dihydro-pyrrolo[3,2,1-de][1,5]naphthyridin-7-one] yielded an MIC of at most 0.031 µg/mL.

`O=C1CSc2ccc(N3C[C@H](CNCC4Cn5c(=O)cnc6cccc4c65)OC3=O)cc2N1` (mixture of isomers) [Example 106, (RS)-6-({[(S)-2-oxo-3-(3-oxo-3,4-dihydro-2H-benzo[1,4]thiazin-6-yl)-oxazolidin-5-ylmethyl]-amino}-methyl)-5,6-dihydro-pyrrolo[1,2,3-de]quinoxalin-3-one] came in with a minimum inhibitory concentration (MIC) of at most 0.031 µg/mL.

Consider `O=C1O[C@@H](CCNC2Cn3c(=O)ccc4ccc(F)c2c43)CN1c1ccc2c(c1)OCCO2` (mixture of isomers) [Example 107, (RS)-1-{2-[(S)-3-(2,3-dihydro-benzo[1,4]dioxin-6-yl)-2-oxo-oxazolidin-5-yl]-ethylamino}-9-fluoro-1,2-dihydro-pyrrolo[3,2,1-ij]quinolin-4-one], for which the MIC was found to be 8 µg/mL.

Compound `O=C1CSc2ccc(N3C[C@H]([C@H](O)CC(=O)N[C@@H]4Cn5c(=O)ccc6ccc(F)c4c65)OC3=O)cc2N1` (mixture of isomers) [Example 108, (RS)—N—((S)-9-fluoro-4-oxo-1,2-dihydro-4H-pyrrolo[3,2,1-ij]quinolin-1-yl)-3-hydroxy-3-[(RS)-2-oxo-3-(3-oxo-3,4-dihydro-2H-benzo[1,4]thiazin-6-yl)-oxazolidin-5-yl]-propionamide] registered an MIC of at most 0.031 µg/mL.

The compound `O=C1CSc2ccc(N3C[C@@H](CNCC4Cn5c(=O)cnc6cccc4c65)OC3=O)cc2N1` (mixture of isomers) [Example 110, (RS)-6-({[(R)-2-oxo-3-(3-oxo-3,4-dihydro-2H-benzo[1,4]thiazin-6-yl)-oxazolidin-5-ylmethyl]-amino}-methyl)-5,6-dihydro-pyrrolo[1,2,3-de]quinoxalin-3-one] registered an MIC of at most 0.031 µg/mL.

In turn, `O=C1CSc2ccc(N3C[C@@H](CCCNC4Cn5c(=O)cnc6cccc4c65)OC3=O)nc2N1` (mixture of isomers) [Example 115, (RS)-6-{3-[(R)-2-oxo-3-(3-oxo-3,4-dihydro-2H-pyrido[3,2-b][1,4]thiazin-6-yl)-oxazolidin-5-yl]-propylamino}-5,6-dihydro-pyrrolo[1,2,3-de]quinoxalin-3-one] showed an MIC of at most 0.031 µg/mL.

For the compound `O=C1CSc2ccc(N3C[C@@H](CCCNC4Cn5c(=O)ccc6ccc(Br)c4c65)OC3=O)cc2N1` (mixture of isomers) [Example 116, (RS)-9-bromo-1-{3-[(R)-2-oxo-3-(3-oxo-3,4-dihydro-2H-benzo[1,4]thiazin-6-yl)-oxazolidin-5-yl]-propylamino}-1,2-dihydro-pyrrolo[3,2,1-ij]quinolin-4-one], the MIC is at most 0.031 µg/mL.

In turn, `N#Cc1ccc2ccc(=O)n3c2c1C(NCCC[C@@H]1CN(c2ccc4c(c2)NC(=O)CS4)C(=O)O1)C3` (mixture of isomers) [Example 117, (RS)-4-oxo-1-{3-[(R)-2-oxo-3-(3-oxo-3,4-dihydro-2H-benzo[1,4]thiazin-6-yl)-oxazolidin-5-yl]-propylamino}-1,2-dihydro-4H-pyrrolo[3,2,1-ij]quinoline-9-carbonitrile] returned an MIC of at most 0.031 µg/mL.

In turn, `N#Cc1ccc2ccc(=O)n3c2c1C(NCCC[C@@H]1CN(c2ccc4c(n2)NC(=O)CS4)C(=O)O1)C3` (mixture of isomers) [Example 118, (RS)-4-oxo-1-{3-[(R)-2-oxo-3-(3-oxo-3,4-dihydro-2H-pyrido[3,2-b][1,4]thiazin-6-yl)-oxazolidin-5-yl]-propylamino}-1,2-dihydro-4H-pyrrolo[3,2,1-ij]quinoline-9-carbonitrile] registered an MIC of at most 0.031 µg/mL.

Turning to `O=C1COc2ccc(N3C[C@H](CCCNC4Cn5c(=O)ccc6ccc(F)c4c65)OC3=O)nc2N1` (mixture of isomers) [Example 124, (RS)-9-fluoro-1-{3-[(S)-2-oxo-3-(3-oxo-3,4-dihydro-2H-pyrido[3,2-b][1,4]oxazin-6-yl)-oxazolidin-5-yl]-propylamino}-1,2-dihydro-pyrrolo[3,2,1-ij]quinolin-4-one], the MIC is at most 0.031 µg/mL.
